Test results: US7335723B2, “Melanin-concentrating hormone antagonists” (priority 2001, dated 2008)
Where a SMILES comes first, the peptide text is derived from it. Bridges are numbered along the chain shown (N, C = ends). [ ]: non-standard residue; d: D form. The star is where a group is joined. Pentanoyl(5-guanidino) = NC(N)=NCCCCC(=O)*; Ava = NCCCCC(=O)O

What was measured:
rat MCH-1R [1] = biological target: T1, rat MCH-1R (Rattus norvegicus, UniProt P97639); assay: Aequorin bioluminescence functional assay, MCH-1R agonist activity; conditions: for MCH-1R Agonist Activation %: 293-AEQ17 cells expressing rat MCH-1R
T1 sequence (P97639 whole entry): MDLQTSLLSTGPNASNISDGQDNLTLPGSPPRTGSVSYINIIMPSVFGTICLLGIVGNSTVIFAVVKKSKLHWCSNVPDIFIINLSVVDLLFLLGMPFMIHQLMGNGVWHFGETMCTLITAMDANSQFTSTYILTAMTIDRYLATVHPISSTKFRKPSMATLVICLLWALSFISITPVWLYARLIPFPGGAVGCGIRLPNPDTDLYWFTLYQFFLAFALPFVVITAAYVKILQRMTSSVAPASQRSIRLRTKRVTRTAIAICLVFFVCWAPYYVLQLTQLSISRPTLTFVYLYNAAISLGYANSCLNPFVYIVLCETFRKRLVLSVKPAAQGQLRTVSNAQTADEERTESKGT

human MCH-2R [2] = biological target: T2, human MCH-2R (Homo sapiens, UniProt Q969V1); assay: Aequorin bioluminescence functional assay, MCH-2R agonist activity; conditions: for MCH-2R Agonist Activation %: 293-AEQ17 cells expressing human MCH-2R
T2 sequence (Q969V1 whole entry): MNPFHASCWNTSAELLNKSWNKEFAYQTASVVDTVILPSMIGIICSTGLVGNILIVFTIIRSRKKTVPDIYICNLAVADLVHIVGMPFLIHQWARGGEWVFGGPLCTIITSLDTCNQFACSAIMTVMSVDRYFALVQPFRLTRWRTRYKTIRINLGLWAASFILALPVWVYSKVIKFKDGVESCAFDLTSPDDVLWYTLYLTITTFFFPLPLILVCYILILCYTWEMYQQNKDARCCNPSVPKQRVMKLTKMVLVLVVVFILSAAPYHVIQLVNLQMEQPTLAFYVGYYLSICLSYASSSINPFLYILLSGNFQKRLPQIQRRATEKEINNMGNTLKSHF

human MCH-1R = human MCH-1R (Homo sapiens, UniProt Q99705); assay: MCH-1R binding assay, inhibition of [125I]-human MCH binding to membranes
Sequence of human MCH-1R (Q99705 whole entry): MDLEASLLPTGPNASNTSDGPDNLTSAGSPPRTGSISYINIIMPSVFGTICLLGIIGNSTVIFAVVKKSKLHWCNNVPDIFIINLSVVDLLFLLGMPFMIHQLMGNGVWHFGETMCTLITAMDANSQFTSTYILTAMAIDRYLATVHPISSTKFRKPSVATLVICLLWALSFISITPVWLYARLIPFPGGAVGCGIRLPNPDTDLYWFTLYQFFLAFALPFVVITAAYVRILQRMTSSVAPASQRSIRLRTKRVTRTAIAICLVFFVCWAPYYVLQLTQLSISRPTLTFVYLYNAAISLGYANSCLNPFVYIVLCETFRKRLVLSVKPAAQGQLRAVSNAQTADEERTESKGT

human MCH-2R [3] = biological target: T2, human MCH-2R; assay: MCH-2R binding assay, inhibition of [125I]-human MCH binding to membranes; design: expressed in transfected cells; host or cells: 293-AEQ17 (aequorin-expressing HEK-293 reporter line); conditions: inhibition of [125I]-human MCH (Phe13, Tyr19) binding, cell membranes
rat MCH-1R [4] = biological target: T1, rat MCH-1R; assay: Antagonist assay, 293-AEQ17 cells expressing rat MCH-1R; assay type: cell-based; design: expressed in transfected cells; host or cells: 293-AEQ17 (aequorin-expressing HEK-293 reporter line); conditions: for Kb: determined per Trends in Pharmacol. Sci. 14:237-239, 1993
Protocol: Cells were grown in DMEM (high glucose) supplemented with 10% FBS (Hyclone), 500 μg/ml G418, 200 μg/ml hygromycin and 25 mM HEPES in T75 flasks.
The assay itself involved charging apoaequorin with coelenterazine cp(Molecular Probes, C-14260) and was performed as follows:
1. Confluent T75 flasks are rinsed 1× with 12 ml Hams F12 medium+300 μM glutathione+0.1% FBS.
2. The cells were charged by adding 8 ml Hams F12+0.1% FBS+300 μM glutathione+10 μM coelenterazine, incubate at 37° C. for 1 hour.
4. ECB (6 ml) is added to the flask and the cells are dissociated with a rubber-tipped scraper, centrifuged for 5 minutes at 2500 rpm and the cell pellet resuspended in 5 ml ECB. The cells are counted and diluted to 5×10^5/ml.
Binding and agonist activity at the MCH-1R and MCH-2R was determined as described in Examples 2 and 3. Antagonist IC50 was determined as described in Example 4. Kb was determined using the procedures described in Trends in Pharmacol. Sci. 14:237-239, 1993.

| SMILES | EC50 (rat MCH-1R [1]) | MCH-1R Agonist Activation % (rat MCH-1R [1]) | EC50 (human MCH-2R [2]) | MCH-2R Agonist Activation % (human MCH-2R [2]) | IC50 (human MCH-1R) | IC50 (human MCH-2R [3]) | IC50 (rat MCH-1R [4]) | Kb (rat MCH-1R [4]) |
| --- | --- | --- | --- | --- | --- | --- | --- | --- |
| CSCC[C@@H]1NC(=O)[C@@H](NC(=O)CCCNC(=N)N)CSSC[C@@H](C(N)=O)NC(=O)CCCCNC(=O)CCCCNC(=O)[C@H](Cc2ccc(O)cc2)NC(=O)[C@H](C(C)C)NC(=O)[C@H](CCCNC(=N)N)NC(=O)CNC(=O)[C@H](CC(C)C)NC1=O [SEQ. ID. NO. 12] | > 10000 nM | 6% | > 10000 nM | 14% | 8 nM | 4000 nM | – | – |
| CSCC[C@@H]1NC(=O)[C@@H](NC(=O)CCCCNC(=N)N)CSSC[C@@H](C(N)=O)NC(=O)CCCCNC(=O)CCCCNC(=O)[C@H](Cc2ccc(O)cc2)NC(=O)[C@H](C(C)C)NC(=O)[C@H](CCCNC(=N)N)NC(=O)CCCCNC(=O)CCCCNC1=O [SEQ. ID. NO. 32] ({Pentanoyl(5-guanidino)}-CM[Ava][Ava]RVY[Ava][Ava]C-NH2; disulfide 1-10; C-terminus assumed) | > 10000 nM | 3% | > 10000 nM | 91% | 62 nM | – | 56 nM | 24 nM |
| CSCC[C@@H]1NC(=O)[C@@H](NC(=O)CCCCNC(=N)N)CSSC[C@@H](C(N)=O)NC(=O)CCNC(=O)CCNC(=O)[C@H](Cc2ccc(O)cc2)NC(=O)[C@H](C(C)C)NC(=O)[C@H](CCCNC(=N)N)NC(=O)CNC(=O)[C@H](CC(C)C)NC1=O [SEQ. ID. NO. 14] | > 10000 nM | 3.6% | > 10000 nM | 32% | 176 nM | – | 6.8 nM | 3 nM |
| CSCC[C@@H]1NC(=O)[C@@H](NC(=O)CCCCNC(=N)N)CSSC[C@@H](C(N)=O)NC(=O)CCCCNC(=O)CCCCNC(=O)[C@H](Cc2ccc(O)cc2)NC(=O)[C@H](C)NC(=O)[C@H](CCCNC(=N)N)NC(=O)CNC(=O)[C@H](CC(C)C)NC1=O [SEQ. ID. NO. 20] ({Pentanoyl(5-guanidino)}-CMLGRAY[Ava][Ava]C-NH2; disulfide 1-10; C-terminus assumed) | > 10000 nM | 3.4% | > 10000 nM | 38% | 29 nM | – | 4.7 nM | 2 nM |

The remaining lines, values ahead:

| EC50 (rat MCH-1R [1]) | MCH-1R Agonist Activation % (rat MCH-1R [1]) | EC50 (human MCH-2R [2]) | MCH-2R Agonist Activation % (human MCH-2R [2]) | IC50 (human MCH-1R) | IC50 (human MCH-2R [3]) | IC50 (rat MCH-1R [4]) | Kb (rat MCH-1R [4]) | SMILES |
| --- | --- | --- | --- | --- | --- | --- | --- | --- |
| 587 nM | 82% | > 10000 nM | – | 3.7 nM | 350 nM | – | – | CSCC[C@@H]1NC(=O)[C@@H](NC(=O)[C@H](CCCNC(=N)N)NC(C)=O)CSSC[C@@H](C(N)=O)NC(=O)[C@@H]2CCCN2C(=O)[C@H](CCCNC(=N)N)NC(=O)[C@H](Cc2ccc(O)cc2)NC(=O)[C@H](C(C)C)NC(=O)[C@H](CCCNC(=N)N)NC(=O)CCCCNC(=O)CCCCNC1=O [SEQ. ID. NO. 3] (Ac-RCM[Ava][Ava]RVYRPC-NH2; disulfide 2-11; C-terminus assumed) |
| > 10000 nM | 3% | > 10000 nM | 16% | 88 nM | – | 10.6 nM | 4.6 nM | CSCC[C@@H]1NC(=O)[C@@H](NC(=O)[C@H](CCCNC(=N)N)NC(C)=O)CSSC[C@@H](C(N)=O)NC(=O)CCCCNC(=O)CCCCNC(=O)[C@H](Cc2ccc(O)cc2)NC(=O)[C@H](C(C)C)NC(=O)[C@H](CCCNC(=N)N)NC(=O)CCCCNC(=O)CCCCNC1=O [SEQ. ID. NO. 30] (Ac-RCM[Ava][Ava]RVY[Ava][Ava]C-NH2; disulfide 2-11 (inferred); C-terminus assumed) |
